For orientation: ED50 means the dose at which the effect has come halfway, by size or by number of responders. The Inhibition is how much of the control response was suppressed. As usually defined, the IC50 is the point on the concentration scale where inhibition reaches its midpoint. Low values mean inhibition by little substance, high ones a need for much substance.

Assay [1] deals with Rattus norvegicus. In words: Dose required to inhibit the synthesis of DOPA in rat brain was determined intraperitoneally. Conditions: ip. Type of assay: functional.
For assay [2], the system named is Rattus norvegicus. As to the kind of experiment: Percent inhibition of spontaneous DA neuronal firing in the substantia nigra of anesthetized rats was determined. Type of assay: functional.
Assay [3] has as its target T1, D(2) dopamine receptor (Rattus norvegicus, UniProt P61169). In words: Affinity of the Compound for Dopamine receptor D2 in rat striatal membrane was determined in vitro using Dopamine agonist [3H]N-propylnorapomorphine as ligand; Value ranges from (204-360). Type of assay: cell membranes, Striatum.
In a further assay the target is D(1A) dopamine receptor (Rattus norvegicus, UniProt P18901). As to the kind of experiment: Affinity of the Compound for Dopamine D1 receptor in rat striatal membrane was determined in vitro using Dopamine Antagonist [3H]SCH-23390 as ligand. The format is cell membranes, Striatum.
D(1A) dopamine receptor, sequence (P18901 whole entry): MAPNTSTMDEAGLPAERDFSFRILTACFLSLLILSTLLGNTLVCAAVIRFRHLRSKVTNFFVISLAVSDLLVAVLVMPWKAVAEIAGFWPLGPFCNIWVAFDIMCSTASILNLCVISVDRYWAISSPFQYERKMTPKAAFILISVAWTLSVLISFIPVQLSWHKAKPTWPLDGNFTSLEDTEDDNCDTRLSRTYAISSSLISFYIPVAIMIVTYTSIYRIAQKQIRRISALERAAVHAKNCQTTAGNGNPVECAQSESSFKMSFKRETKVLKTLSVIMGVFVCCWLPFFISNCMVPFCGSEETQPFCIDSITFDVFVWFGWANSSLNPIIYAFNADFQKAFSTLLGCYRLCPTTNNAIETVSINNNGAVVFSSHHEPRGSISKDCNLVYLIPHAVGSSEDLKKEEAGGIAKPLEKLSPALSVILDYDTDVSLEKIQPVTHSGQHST
Assay [4] deals with T1, D(2) dopamine receptor. As to the kind of experiment: Affinity of the Compound for Dopamine receptor D2 in rat striatal membrane was determined in vitro using Dopamine Antagonist [3H]spiperone as ligand; Value ranges from (580-1050). The format is cell membranes, Striatum.
Assay [5] has as its target T1, D(2) dopamine receptor. As to the kind of experiment: Affinity of the Compound for Dopamine receptor D2 in rat striatal membrane was determined in vitro using Dopamine Antagonist [3H]spiperone as ligand; Value ranges from (124-550). The format is cell membranes, Striatum.
In assay [6] the target is T1, D(2) dopamine receptor. As to the kind of experiment: Affinity of the Compound for Dopamine receptor D2 in rat striatal membrane was determined in vitro using Dopamine agonist [3H]N-propylnorapomorphine as ligand; Value ranges from (80-119). Type of assay: cell membranes, Striatum.
The target in assay [7] is T1, D(2) dopamine receptor. In words: Affinity of the Compound for Dopamine receptor D2 in rat striatal membrane was determined in vitro using Dopamine Antagonist [3H]spiperone as ligand; Value ranges from (270-500). The format is cell membranes, Striatum.
Assay [8] addresses T1, D(2) dopamine receptor. As to the kind of experiment: Affinity of the Compound for Dopamine receptor D2 in rat striatal membrane was determined in vitro using Dopamine agonist [3H]N-propylnorapomorphine as ligand; Value ranges from (70-150). Type of assay: cell membranes, Striatum.
The subject of assay [9] is Rattus norvegicus. In words: Percent reversal of the increase in rat striatum DOPA accumulation produced by pretreatment with GBL (750 mg/kg ip) and NSD 1015 (100 mg/kg) when 2 mg/kg was administered. The format is functional.

T1 sequence (P61169 whole entry): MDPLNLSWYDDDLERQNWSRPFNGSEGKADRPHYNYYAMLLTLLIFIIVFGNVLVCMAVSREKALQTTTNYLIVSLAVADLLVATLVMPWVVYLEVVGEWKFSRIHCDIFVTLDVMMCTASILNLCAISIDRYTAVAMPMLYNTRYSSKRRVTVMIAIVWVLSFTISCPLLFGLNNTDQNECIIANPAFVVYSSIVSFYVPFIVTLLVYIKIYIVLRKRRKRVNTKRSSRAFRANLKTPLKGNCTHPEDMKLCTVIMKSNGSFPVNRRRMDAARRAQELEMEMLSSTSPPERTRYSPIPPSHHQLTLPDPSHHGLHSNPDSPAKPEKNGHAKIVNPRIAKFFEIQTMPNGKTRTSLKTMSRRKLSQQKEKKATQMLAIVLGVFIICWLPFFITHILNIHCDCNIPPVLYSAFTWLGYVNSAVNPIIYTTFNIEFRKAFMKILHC

Compound `Nc1nc2c(s1)C[C@@H](N1CCN(c3ccccn3)CC1)CC2` returned an ED50 in the assay with Rattus norvegicus [1] of 4.8 mg/kg. Also, the Inhibition in the assay with Rattus norvegicus [2] turned out to be 100%. Further, the IC50 on D(2) dopamine receptor [3] is 280 nM; on D(1A) dopamine receptor, above 15000 nM; against D(2) dopamine receptor [4], 800 nM.

Turning to `Nc1nc2c(s1)CC(N1CCN(c3ccccn3)CC1)CC2` (racemic), the ED50 with Rattus norvegicus [1] turned out to be 4.4 mg/kg. The compound also registered an Inhibition in the assay with Rattus norvegicus [2] of 97%. In addition, the IC50 is 320 nM at D(2) dopamine receptor [5], 100 nM at D(2) dopamine receptor [6] and above 15000 nM on D(1A) dopamine receptor.

In the case of `Nc1nc2c(s1)C[C@H](N1CCN(c3ccccn3)CC1)CC2`, the IC50 is 440 nM against D(2) dopamine receptor [7], above 15000 nM against D(1A) dopamine receptor and 105 nM on D(2) dopamine receptor [8]. Besides, the ED50 in the assay with Rattus norvegicus [1] is 7 mg/kg. This compound also displayed an Inhibition in the assay on Rattus norvegicus [2] of 85%.

`CN1CCc2cccc3c2[C@H]1Cc1ccc(O)c(O)c1-3` [APOMORPHINE] displayed an Inhibition with Rattus norvegicus [2] of 100%. In the assay with Rattus norvegicus [9], the Reversal was found to be 100%.

The values are drawn from ChEMBL document CHEMBL1152062, “Novel 4,5,6,7-tetrahydrobenzothiazole dopamine agonists display very low stereoselectivity in their interaction with dopamine receptors” (Bioorg Med Chem Lett, 1991).
